Data reported in paper PMC10817917, “Alkyl deoxyglycoside-polymyxin combinations against critical priority carbapenem-resistant gram-negative bacteria” (Scientific Reports, 2024).
Where two headings read alike, the source gives them in different places.

Tests used:
[1] = system: P. aeruginosa CQ4924; assay: Broth microdilution MIC, glycosides with or without polymyxins; assay type: cell-based, Pseudomonas aeruginosa; settings: for MIC: Pseudomonas aeruginosa, CQ4924
[2] = system: E. cloacae CQ1941; assay: Broth microdilution MIC/MBC, glycosides with or without polymyxins; assay type: cell-based; settings: for MIC: Enterobacter cloacae, CQ1941
[3] = system: E. coli NCTC 13846; assay: as above; assay type: cell-based, Escherichia coli; settings: strain B
[4] = system: K. pneumoniae CQ1942; assay: Broth microdilution MIC, glycosides with or without polymyxins; assay type: cell-based, Klebsiella pneumoniae; settings: for MIC: Klebsiella pneumoniae, CQ1942
[5] = system: E. coli ATCC 25922; assay: Broth microdilution MIC/MBC, glycosides with or without polymyxins; assay type: cell-based, Escherichia coli; settings: for MIC: Escherichia coli, ATCC25922
[6] = system: Caco-2 cells; assay: Resazurin cell viability assay (cytotoxicity); assay type: cell-based, human; settings: read-out: IC50
In short: (§1)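 HEK-293T and Caco-2 cells (1.5 × 10^4/well, RPMI 1640 with 10% FBS) exposed 72 h at 37 °C to glycosides at final 100 to 10 µM, alone or with PMB or colistin at final 0.5, 0.25 or 0.125 µg/mL; max DMSO 0.33%. Resazurin added 4 h, read 570/600 nm; IC50 from dose-response fits, mean ± SD of three replicates.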

[7] = system: HEK-293T cells; assay: Resazurin cell viability assay (cytotoxicity); assay type: cell-based, human; settings: 72 h, read-out: IC50
In short: as §1

[8] = alone, read-out: MICA (MIC of each compound individually)
[9] = combination with the lowest FICI
[10] = compound + colistin, lowest FICI

CCCCCCCCCCCCO[C@H]1O[C@H](C)C[C@H](O)[C@H]1O [Compound 1, dodecyl 4,6-dideoxy-α/β-D-xylo-hexopyranoside]
MIC of colistin in combination with the compound ([1]; Cpd conc. 0.4 μg/mL, strain H): > 0.5 µg/mL
MIC of colistin in combination with the compound ([1]; Cpd conc. 0.8 μg/mL, strain H): > 0.5 µg/mL
MIC of colistin in combination with the compound ([1]; Cpd conc. 3.125 μg/mL, strain H): > 0.5 µg/mL
MIC of colistin in combination with the compound ([1]; Cpd conc. 6.25 μg/mL, strain H): > 0.5 µg/mL
MIC of colistin in combination with the compound ([1]; Cpd conc. 12.5 μg/mL, strain H): > 0.5 µg/mL
MIC of colistin in combination with the compound ([1]; Cpd conc. […], strain H): > 0.5 µg/mL
MIC of compound in combination with PMB ([1]; PMB 0.25 μg/mL, strain H): > 100 µg/mL
MIC of compound in combination with PMB ([1]; PMB 0.5 μg/mL, strain H): > 100 µg/mL
MIC ([1]; agent alone, no adjuvant (polymyxin conc. 0), strain H, read-out: MIC): > 100 µg/mL
MIC [1, 8]: > 100 µg/mL
MIC of compound in combination with colistin ([1]; colistin 0.06 μg/mL, strain H): > 100 µg/mL
MIC of compound in combination with colistin ([1]; colistin 0.125 μg/mL, strain H): > 100 µg/mL
MIC of compound in combination with colistin ([1]; colistin 0.25 μg/mL, strain H): > 100 µg/mL
MIC of colistin in combination with the compound ([2]; Cpd conc. 0.4 μg/mL, strain D): > 0.5 µg/mL
MIC of colistin in combination with the compound ([2]; Cpd conc. 0.8 μg/mL, strain D): 0.5 µg/mL
MIC of colistin in combination with the compound ([2]; Cpd conc. 3.125 μg/mL, strain D): 0.25 µg/mL
MIC of colistin in combination with the compound ([2]; Cpd conc. 6.25 μg/mL, strain D): 0.25 µg/mL
MIC of colistin in combination with the compound ([2]; Cpd conc. 12.5 μg/mL, strain D): 0.25 µg/mL
MIC of colistin in combination with the compound ([2]; Cpd conc. […], strain D): 0.25 µg/mL
MIC ([2]; agent alone, no adjuvant (polymyxin conc. 0), strain D, read-out: MIC): > 100 µg/mL
MIC [2, 8]: > 100 µg/mL
MIC of compound in combination with PMB ([2]; PMB 0.25 μg/mL, strain D): > 100 µg/mL
MIC of compound in combination with PMB ([2]; PMB 0.5 μg/mL, strain D): 1.6 µg/mL
MIC of compound in combination with colistin ([2]; colistin 0.06 μg/mL, strain D): > 100 µg/mL
MIC of compound in combination with colistin ([2]; colistin 0.125 μg/mL, strain D): > 100 µg/mL
MIC of compound in combination with colistin ([2]; colistin 0.25 μg/mL, strain D): 1.6 µg/mL
MIC of compound in combination with colistin ([2]; colistin 0.5 μg/mL, strain D): 0.8 µg/mL
MICB(A + B) (MIC of colistin in combination with compound) [2, 9]: 0.25 µg/mL
Interpretation (of FICI) ([2]; compound + colistin): Additive (from 0.5 to 1.0 were additive)
FICI [2, 10]: 0.52
MIC of colistin in combination with the compound ([3]; Cpd conc. 0.4 μg/mL): > 0.5 µg/mL
MIC of colistin in combination with the compound ([3]; Cpd conc. 0.8 μg/mL): > 0.5 µg/mL
MIC of colistin in combination with the compound ([3]; Cpd conc. 3.125 μg/mL): > 0.5 µg/mL
MIC of colistin in combination with the compound ([3]; Cpd conc. 6.25 μg/mL): > 0.5 µg/mL
MIC of colistin in combination with the compound ([3]; Cpd conc. 12.5 μg/mL): > 0.5 µg/mL
MIC of colistin in combination with the compound ([3]; Cpd conc. […]): > 0.5 µg/mL
MIC ([3]; Escherichia coli, NCTC13846, agent alone, no adjuvant (polymyxin conc. 0), read-out: MIC): > 100 µg/mL
MIC of compound in combination with PMB ([3]; PMB 0.25 μg/mL): > 100 µg/mL
MIC of compound in combination with PMB ([3]; PMB 0.5 μg/mL): > 100 µg/mL
MIC of compound in combination with colistin ([3]; colistin 0.06 μg/mL): > 100 µg/mL
MIC of compound in combination with colistin ([3]; colistin 0.125 μg/mL): > 100 µg/mL
MIC of compound in combination with colistin ([3]; colistin 0.25 μg/mL): > 100 µg/mL
MIC of compound in combination with colistin ([3]; colistin 0.5 μg/mL): > 100 µg/mL
MIC of colistin in combination with the compound ([4]; Cpd conc. 0.4 μg/mL, strain E): > 0.5 µg/mL
MIC of colistin in combination with the compound ([4]; Cpd conc. 0.8 μg/mL, strain E): 0.5 µg/mL
MIC of colistin in combination with the compound ([4]; Cpd conc. 3.125 μg/mL, strain E): 0.25 µg/mL
MIC of colistin in combination with the compound ([4]; Cpd conc. 6.25 μg/mL, strain E): 0.25 µg/mL
MIC of colistin in combination with the compound ([4]; Cpd conc. 12.5 μg/mL, strain E): 0.25 µg/mL
MIC of colistin in combination with the compound ([4]; Cpd conc. […], strain E): 0.5 µg/mL
MIC ([4]; agent alone, no adjuvant (polymyxin conc. 0), strain E, read-out: MIC): > 100 µg/mL
MIC [4, 8]: > 100 µg/mL
MIC of compound in combination with PMB ([4]; PMB 0.25 μg/mL, strain E): > 100 µg/mL
MIC of compound in combination with PMB ([4]; PMB 0.5 μg/mL, strain E): 1.6 µg/mL
MIC of compound in combination with colistin ([4]; colistin 0.06 μg/mL, strain E): > 100 µg/mL
MIC of compound in combination with colistin ([4]; colistin 0.125 μg/mL, strain E): > 100 µg/mL
MIC of compound in combination with colistin ([4]; colistin 0.25 μg/mL, strain E): 3.1 µg/mL
MIC of compound in combination with colistin ([4]; colistin 0.5 μg/mL, strain E): 0.8 µg/mL
MICA(A + B) (MIC of compound in combination with colistin) [4, 9]: 3.125 µg/mL
MICB(A + B) (MIC of colistin in combination with compound) [4, 9]: 0.25 µg/mL
Interpretation (of FICI) ([4]; compound + colistin): Additive (from 0.5 to 1.0 were additive)
FICI [4, 10]: 0.52
MIC of colistin in combination with the compound ([5]; Cpd conc. 0.4 μg/mL, strain A): > 0.5 µg/mL
MIC of colistin in combination with the compound ([5]; Cpd conc. 0.8 μg/mL, strain A): > 0.5 µg/mL
MIC of colistin in combination with the compound ([5]; Cpd conc. 3.125 μg/mL, strain A): 0.25 µg/mL
MIC of colistin in combination with the compound ([5]; Cpd conc. 6.25 μg/mL, strain A): 0.25 µg/mL
MIC of colistin in combination with the compound ([5]; Cpd conc. 12.5 μg/mL, strain A): 0.25 µg/mL
MIC of colistin in combination with the compound ([5]; Cpd conc. […], strain A): > 0.5 µg/mL
MIC ([5]; agent alone, no adjuvant (polymyxin conc. 0), strain A, read-out: MIC): > 100 µg/mL
MIC [5, 8]: > 100 µg/mL
MIC of compound in combination with PMB ([5]; PMB 0.25 μg/mL, strain A): > 100 µg/mL
MIC of compound in combination with PMB ([5]; PMB 0.5 μg/mL, strain A): 3.1 µg/mL
MIC of compound in combination with colistin ([5]; colistin 0.06 μg/mL, strain A): > 100 µg/mL
MIC of compound in combination with colistin ([5]; colistin 0.125 μg/mL, strain A): > 100 µg/mL
MIC of compound in combination with colistin ([5]; colistin 0.25 μg/mL, strain A): 3.1 µg/mL
MIC of compound in combination with colistin ([5]; colistin 0.5 μg/mL, strain A): 3.1 µg/mL
MICA(A + B) (MIC of compound in combination with colistin) [5, 9]: 3.125 µg/mL
MICB(A + B) (MIC of colistin in combination with compound) [5, 9]: 0.25 µg/mL
Interpretation (of FICI) ([5]; compound + colistin): Additive (from 0.5 to 1.0 were additive)
FICI [5, 10]: 0.52
IC50 ([6]; Homo sapiens, Caco-2, 72 h, Colistin 0.25 μg/mL): 54.7 ± 1.04 µM
IC50 ([6]; Homo sapiens, Caco-2, 72 h, Colistin 0.5 μg/mL): 52.5 ± 2.28 µM
IC50 ([6]; Homo sapiens, Caco-2, 72 h, No polymyxin): 54.2 ± 2.77 µM
IC50 ([6]; Homo sapiens, Caco-2, 72 h, PMB 0.25 μg/mL): 50.5 ± 0.15 µM
IC50 ([6]; Homo sapiens, Caco-2, 72 h, PMB 0.5 μg/mL): 52.2 ± 1.77 µM
IC50 ([6]; Homo sapiens, Caco-2, 72 h, tested alone (no polymyxin adjuvant)): 17.2 µg/mL
IC50 ([6]; No polymyxin, 72 h): 54.3 µM
IC50 ([7]; Homo sapiens, HEK-293T, Colistin 0.25 μg/mL): 69.4 ± 2.58 µM
IC50 ([7]; Homo sapiens, HEK-293T, Colistin 0.5 μg/mL): 65.9 ± 3.75 µM
IC50 ([7]; Homo sapiens, HEK-293T, No polymyxin): 65.8 ± 1.28 µM
IC50 ([7]; Homo sapiens, HEK-293T, PMB 0.125 μg/mL): 64.6 ± 0.87 µM
IC50 ([7]; Homo sapiens, HEK-293T, PMB 0.25 μg/mL): 65.32 ± 0.4 µM
IC50 ([7]; Homo sapiens, HEK-293T, PMB 0.5 μg/mL): 67.7 ± 1.22 µM
IC50 ([7]; Homo sapiens, HEK-293T, tested alone (no polymyxin adjuvant)): 20.8 µg/mL
IC50 ([7]; No polymyxin): 65.8 µM
